Experimental data published in patent publication US6590123B2, “Aminobenzoic acid derivatives having anti-tumorigenic activity, methods of making and using the same” (Mount Sinai School of Medicine of New York University, priority 1998, dated 2003).
“And” between values parts separate entries of the source, which are not always exact repeats. Identical values can stand only once. “Also recorded” adds a separate entry of the source. Counter-ions that a name gives are not always drawn.

Key:
CEM cells [1] = experiment: Morphology by microscopy (mitotic arrest, apoptosis, necrosis); type: cell-based, human; details: CEM cells
Method: Slides for examination of mitosis were prepared on a cytospin centrifuge (Shandon Southern Products Ltd, England ) at 700 g for 5 min. Slides were air dried, fixed in methanol and stained with Giemsa (Harleco, N.J.) at room temperature for 15 min. Cells in mitotic arrest were recognized by the disappearance of nuclear membrane and by the appearance of chromosomal scattering throughout the cytoplasm (reference 1). The % of mitotic cells were counted after 24 h incubation using optical microscopy. Apoptotic cells were identified using common criteria, i.e., shrinkage in cell size, chromatin condensation and fragmentation of the nucleus into discrete masses (reference 2).
Cell samples on slides were prepared by a Cytospin centrifuge (Shandon Southern Products Ltd, England) at 700 g for 5 min. The slides were air dried, fixed in methanol and stained with Giemsa (Harleco, N.J.) at room temperature for 15 min. Alterations of nuclei, membranes and morphological features were observed by light microscopy. Cells in mitotic phase were recognized by the appearance of their chromosomes dispersed in the cytoplasm, and by the disappearance of nuclear membrane. Apoptotic-cells were identified using previously defined criteria, i.e., shrinkage in cell size, chromatin condensation and fragmentation of the nucleus into discrete masses (references 2 & 3). Necrotic cells were differentiated from apoptotic cells by observing swollen cytoplasm and the disappearance of cell membrane prior to the destruction of the nucleus.

Purified tubulin = experiment: Inhibition of microtubule assembly by spectrophotometry, cell free system; type: biochemical, calf
Method: (§1) Purified tubulin was purchased from Sigma (St. Louis, Mo.). The effects of compounds 6, 7, 8, 9, paclitaxel and vinblastine on the microtubule assembly-disassembly process were determined using conditions recommended by the vendor. For assembly inhibition, 100 μl tubulin solution (500-600 μg protein/ml) was mixed gently with 400 μl reaction buffer containing 0.1 M MES (2-[N-morpholino]ethane sulfonic acid), 1 mM EGTA ([…]-N,N,N′,N′-tetraacetic acid), 0.5 mM MgCl2, 0.1 mM EDTA and 2.5 M gycerol at 37° C. Compounds 6, 7, 8, and 9 were next added to each sample at final concentrations of 10, 10, 1 and 1 μg/ml, respectively. After adding GTP to each sample to a final concentration of 1 mM, the microtubule assembly process was monitored by measuring the change of absorbance (OD) at 350 nm on a spectrophotometer (Ultrospec III, Pharmacia LKB, Uppsala, Sweden). A completed assembly process was observed within 40 min at room temperature. For disassembly inhibition, compounds 6, 7, 8, and 9 were added, at the above concentrations, to covets with repolymerized microtubules as described above, and incubated in melting ice. Changes of absorbance (OD) were monitored at 350 nm for 30 min until the OD values in the controls returned to the starting level, i.e., when the assembly-disassembly cycle was completed.
Purified tubulin from calf brain was purchased from Sigma (St. Louis, Mo.). The effects of 3-BAABU (3-bromoacetoamido, benzoylurea) on the microtubule assembly-disassembly process were determined using the conditions recommended by the vendor. For assembly inhibition, 100 μl tubulin solution (500-600 μg protein/ml) was mixed gently with 400 μl reaction buffer containing 0.1 M MES, 1 mM EGTA, 0.5 mM MgCl2, 0.1 mM EDTA and 2.5 M glycerol at 37° C. 3-BAABU, paclitaxel or vinblastine were then added to each sample cuvet at final concentrations of 3.3, 23 or 22 μM, respectively. After adding GTP to each sample to a final concentration of 1 mM, the microtubule assembly process was monitored by measuring the change of absorbance (OD) every 5 min at 350 nm on a spectrophotometer (Ultrospec III, Pharmacia LKB, Uppsala, Sweden). A completed assembly process was observed within 40 min at room temperature. For disassembly inhibition, 3-BAABU (3.3 μM), paclitaxel (23 μM) or vinblastine (22 μM) was added to a cuvet with repolymerized microtubules according to the method described above, and incubated in melting ice. Changes of absorbance (OD) were monitored at 350 nm for 30 min until the OD values in the controls returned to the starting level, i.e., completion of the assembly-disassembly cycle. Solvent solutions were used as control and had no effect in either the assembly or disassembly process.

CEM cells [2] = experiment: Cell cycle analysis by flow cytometry; type: cell-based, human; details: 8 h treatment, compound 6 2.5 μg/ml, compound 8 0.025 μg/ml, compound 9 0.005 μg/ml
CEM cells [3] = experiment: DNA fragmentation by electrophoresis (apoptosis); type: cell-based, human; details: 48 hours, compound 8 0.025 μg/ml, compound 9 0.005 μg/ml, fluorine compound 5.0 μg/ml, chlorine compound 0.75 μg/ml
Method: DNA fragmentation was determined by a method reported previously (reference 3). Briefly, cells were treated in 1 ml lysis buffer (0.01M Tris. HCL pH 8.0, 0.01M NaCl, 0.01M EDTA pH 8.0 and 5% sodium dodecyl sulfate) containing 1 μg/ml protease K for 1 h at 50° C. The resulting products were extracted with phenol and chloroform:isoamylalcohol (24:1, v/v), and precipitated with ethanol followed by centrifugation at 7800 g (Sorvall RC-5B Du Pont, Newtown, Conn.). The ethanol was removed and the dry pellets of nucleic acid were resuspended in 10 mM Tris-HCL/1 mM EDTA solution. When DNA content was determined spectrophotometrically all samples had A260/A280 ratio≧2. The DNA samples were then treated with RNase (Sigma, St. Louis, Mo.) at a final concentration of 0.1 μg/μl for 20 min at 37° C. before gel loading. Approximately 4 μg size DNA aliquots were loaded onto horizontal agarose gel (1.5%) prepared with 1% ethidium bromide. Electrophoresis was performed at 75 volts for 2 h and the DNA patterns were visualized with UV light.
[…] After incubation, cells were washed twice in PBS. Cell pellets were resuspended in drug-free medium and incubated for 48 hr at 37° C. Cell viability, morphology, mitotic spindles, cell cycle distribution and apoptosis were determined 24 hr and 48 hr post pulse exposure.
Soluble DNA from cells was extracted by the method reported previously (14). Briefly, after washing with PBS, cells were treated in 1 ml lysis buffer (0.01 M Tris.HCL pH 8.0, 0.01 M NaCl, 0.01M EDTA pH 8.0 and 5% sodium dodecyl sulfate) containing 1 μg/ml proteinase K for 1 hr at 50° C. The resulting products were extracted with phenol and chloroform:isoamylalcohol (24:1, v/v), and precipitated with ethanol followed by centrifugation at 7800 g (Sorvall RC-5B Du Pont, Newtown, Conn.). The ethanol was removed and the dry pellet of nucleic acid was resuspended in 10 mM Tris-HCL/1 mM EDTA solution. DNA content was determined spectrophotometrically by measuring absorption at 260 nm (A260). All samples, had A260/A280≧2. The DNA samples were then treated with RNase (Sigma, St. Louis, Mo.) at a final concentration of 0.1 μg/l for 20 min at 37° C. before gel loading. The DNA sample (4 μg) was analyzed in 1.5% horizontal agarose gel prepared with 1% ethidium bromide. Electrophoresis was performed at 75 volts for 2 hours and the DNA migration was visualized under UV light.

CEM cells [4] = experiment: Cytotoxicity, ID50 and ID90 by trypan blue staining; type: cell-based
Method: CEM cells, a human T-cell lymphoblastoid leukemia cell line (American Type Culture Collection, Rockville, Md.), were cultured in suspension (Iscove's Dulbecco's Medium) supplemented with 10% heat inactivated fetal bovine serum (FBS), penicillin (250 μ/ml) and streptomycin (250 μl/ml). Cells were incubated at 37° C. in 5% C02 and only those cells in exponential growth were used.
CEM cells were seeded into 96-well microplates (Falcon, Oxnard, Calif.) at 10^5 cell per well, then treated with 0-10 μg/ml of the candidate compounds for 48 h at 37° C. yielding a total volume of 250 μ/well. Cell viability was assessed by trypan blue staining. ID50 and ID90 were defined as the concentration killing 50% or 90% of the cells in comparison with untreated controls, and calculated by non-linear regression analysis.
Cells in suspension culture were seeded into 96-well microplates (Falcon, Oxnard, Calif.) at 10^5 cell per well, followed, by treatment with 0-10 μg/ml of the candidate compounds for 48 hr at 37° C. with total volume of 250 μl per well. Cell viability was assessed by trypan blue exclusion.
The ID50 and ID90 was determined in duplicate in every set of experiments, and each experiment was repeated 3 times under identical conditions. ID50 and ID90 were defined as drug concentrations that induced 50% or 90% cellular death in comparison with untreated controls and calculated by non-linear regression analysis. […]

[5] = system: repolymerized microtubules; experiment: Inhibition of microtubule disassembly by spectrophotometry, cell free system; type: biochemical, calf; details: 23 μM
Method: as §1, with “A completed assembly process was observed within 40 min at room temperature. For disassembly inhibition, compounds 6, 7, 8, and 9 were added, at the above concentrations, to covets with repolymerized microtubules as described above, and incubated in melting ice.” left out
Purified tubulin from calf brain was purchased from Sigma (St. Louis, Mo.). The effects of 3-BAABU (3-bromoacetoamido, benzoylurea) on the microtubule assembly-disassembly process were determined using the conditions recommended by the vendor. […]

[6] = LD50 (lethal dose) in mice; details: mice, i.p.
Excerpt: (§2) The in vivo efficacy of 3-BAABU and 3-IAABU of the present invention was asssessed in a murine model, along with known anti-tubule agents, vinblastine and paclitaxel, as a comparative standard. Approximately 10^6 P338 leukemia lymphoma cells/mouse were implanted intra-peritoneal (i.p.) into male C57 BL/6JX mice (Jackson Laboratories, N.Y.). On days 2 and 8 post-implantation, drugs were administrated i.p. at the following concentration ranges: 3-BAABU from 16.6 to 116 μmole/kg, 3-IAABU from 14.4 to 101 μmole/kg, vinblastine from 2.2 to 20 μmole/kg and paclitaxel from 28 to 57 μmole/kg.
(§3) Both control and treated animals were examined for ascitic tumor burden daily for 35 days. […] Therapeutic index was defined as the ratio of LD50 (lethal dose) to ED50 (effective dose).

[7] = system: P338 leukemia lymphoma cells; experiment: Survival and ED50 in mice implanted i.p. with P338 lymphoma; type: in vivo, male C57 BL/6JX mice; details: for Survival IL % / Survival Mean ± SD: P338 Lymphoma (i.p.); for ED50: P338 leukemia lymphoma i.p. in mice, drug i.p. on days 2 and 8
Method: FIG. 9 is a plot graph of the survival rate of male C57 BL/6JX mice implanted (i.p.) with P338 lymphoma, from 10 to 40 days after implantation. Two groups were used for the study: a control group of ten and a test group of ten that were treated with 20 mg/kg, (i.p.) of compound 8 at 2 and 8 days post-implantation.
as §2, §3

Row | Compound | mitotic arrest (blocking) effect, morphological appearance (CEM cells [1]; 24 h, compound 8 at 0.025 μg/ml, compound 9 at 0.005 μg/ml) | Mitotic arrest, % (CEM cells [1]; % of mitotic cells after 24 h incubation, optical microscopy) [%] | interference with the cell cycle (CEM cells [1]; after 24 hours treatment, 2.5 μg/ml) | effect on microtubule assembly (Purified tubulin; cell free tubulin, up to 10 μg/ml) | shift of the cell population from G0/G1 (2N) to G2/M (4N), DNA profile (CEM cells [2]) | apoptosis, DNA fragmentation on gel electrophoresis (CEM cells [3]) | IC90 (CEM cells [4]; Homo sapiens, CCRF-CEM, 48 h, read-out: ID90) | cytotoxicity against human leukemic cells (CEM) (CEM cells [4]; at a concentration as high as 10 μM) | inhibition of microtubule depolymerization [5] | activity on microtubular polymerization (Purified tubulin; 23 μM) | LD50 [6] [µmol/kg] | Survival IL % ([7]; 30 mg/kg ip on days 2 & 8) [%] | Survival Mean ± SD ([7]; 30 mg/kg ip on days 2 & 8, control 18.6 ± 1.1) | ED50 [7] [µmol/kg] | Survival IL % ([7]; 2 mg/kg ip on days 2 & 8) [%] | Survival Mean ± SD ([7]; 2 mg/kg ip on days 2 & 8, control 15.1 ± 2.3)
1 | NC(=O)NC(=O)c1cccc(NC(=O)CF)c1 [Compound 6, 3-Fluoroacetoamido, benzoylurea] | failed to induce mitotic arrest | <10 | virtually no interference | no effect | undetectable change; also recorded: identical to that of the untreated control | did not induce apoptosis | > 2.5 µg/mL and > 10 µM | no cytotoxicity | – | – | – | – | – | – | – | –
2 | CC(=O)O[C@H]1C(=O)[C@@]2(C)[C@H]([C@H](OC(=O)c3ccccc3)[C@]3(O)C[C@H](OC(=O)[C@H](O)[C@@H](NC(=O)c4ccccc4)c4ccccc4)C(C)=C1C3(C)C)[C@]1(OC(C)=O)CO[C@@H]1C[C@@H]2O [Paclitaxel, reference compound] | – | – | – | – | – | – | – | – | significant inhibition | no activity | 45 | 10 | 20.4 ± 3.2 | 37 | – | –
3 | CC[C@]1(O)C[C@@H]2CN(CCc3c([nH]c4ccccc34)[C@@](C(=O)OC)(c3cc4c(cc3OC)N(C)[C@H]3[C@@](O)(C(=O)OC)[C@H](OC(C)=O)[C@]5(CC)C=CCN6CC[C@]43[C@@H]65)C2)C1 [Vinblastine, vinblastine sulfate] | – | – | – | – | – | – | – | – | – | – | 9.2 | – | – | 4.5 | 21 | 18.2 ± 6.3
